Measurements taken from patent US5137889A, “Dihydropyridine derivatives and process for preparing the same” (Otsuka Pharmaceutical Co., Ltd., priority 1983, dated 1992).
pIC50: −log10 of the molar value.

How the values were obtained:
[1] = target: T1, Cyclic-AMP phosphodiesterase (Bos taurus, UniProt P14100); test: Cyclic AMP phosphodiesterase inhibitory activity (absence of calmodulin, EGTA in place of CaCl2); type: biochemical, bovine; conditions: 1 mM EGTA in place of CaCl2; 3 hours
T1 construct: from tissue; host or cells: bovine heart, partially purified
Description: (§1) (2) Calmodulin-dependent cyclic-AMP phosphodiesterase (EC 3.1.4.17): An enzyme substance isolated from the heart of bovine and purified partially by a method of modified version of the disclosure in H. C. Ho, T. S. Teo, et al.: "Biochim. Biophys. Acta", 429, 461 (1976).
(§2) (3) 5'-Nucleotidase (EC 3.1.3.5): Grade IV substance (isolated from Crotalus adamanteus venom) manufactured by Sigma & Co.
(§3) (4) Others: Remainder of the reagents used in the test were those of reagent grade chemicals manufactured by Wako Pure-Chemical Industries, Ltd.
(§4) Calmodulin inhibitory activity of each of the test compounds was measured by a method of modified version of the disclosure in T. S. Teo and T. H. Wang: "J. Bio. Chem.", 248, 588 (1973).
(§5) (3) 5'-Nucleotidase: One unit thereof hydrolyzes 1.0 micromole of inorganic phosphorus from adnosine 5'-monophosphate per minute at pH 9.0 at 37° C.
(2) Cyclic AMP phosphodiesterase inhibitory activity:
The reaction was conducted by a method similar to that described in (1) as mentioned above, except that 1 mM of EGTA [ethylene glycol-bis(β-amino ethyl ether)-N,N-tetraacetic acid] was used in place of 20 mM of CaCl2. The reaction was conducted for 3 hours.

[2] = system: SHR-rats (spontaneously hypertensive rats); conditions: 30 mg/kg p.o.
Description: Systolic blood pressures and heart beat of SHR-rats (spontaneously hypertensive rats) were determined by a "tail cuff method". Thus the test animal was placed in a thermostat chamber (Type: FR-12RS, manufactured by Isuze & Co.) and was warmed at 40° C. for 15 minutes so as to vasodilate the tail arteria, the systolic blood pressures were measured by an electro sphygmomanometer (Type: PE-300, manufactured by Narco-Biosystems, Inc.) and recorded by an ink-writing recorder (Type: RECTI-HORIZ 8s, manufactured by San-Ei Instrument & Co.). The experiments were conducted under non-anesthetized and semi-confinement conditions. The test compound was orally administered forcedly by using a sonde for oral administration. The test compound was suspended in 0.15%-gum arabic powder aqueous solution so as to make the quantity of the test compound to 2.5 ml/kg. The test animal was not fasted, and the systolic blood pressures (mm-Hg) were measured before the administration (hereinafter referred to as "PRE") and after the administration (8, 24, 30, 48, 54 and 72 hours after the administration) of the test compound. The data of systolic blood pressure measured before the administration are shown in absolute value of mmHg, and the data measured after the administration are shown in the differences from the absolute values.

[3] = target: T2, Calmodulin-cyclic-AMP phosphodiesterase (Bos taurus, UniProt P62157); test: Calmodulin-cyclic-AMP phosphodiesterase inhibitory activity (presence of calmodulin); type: biochemical, bovine; conditions: with calmodulin and CaCl2, pH 7.0, 30° C., 30 minutes; for IC50: read-out: Calmodulin-cyclic-AMP phosphodiesterase IC50 (converted)
T2 construct: tissue Amano & Co. (calmodulin only); host or cells: phosphodiesterase: bovine heart, partially purified; calmodulin: bovine brain
Description: (1) Calmodulin: A calmodulin product manufactured by Amano & Co., which was isolated from the brain of bovine, and purified so as to be considered as a single substance with respect to SDS-page (polyacrylamide gel electrophoresis) method.
as §1, §2, §3, §4
(2) Calmodulin: One unit thereof stimulates 0.015 activated unit of cyclic-AMP phosphodiesterase to 50% of the maximum activity of the enzyme.
as §5
(1) Calmodulin-cyclic-AMP phosphodiesterase inhibitory activity:
40 mM of Imidazol, 20 mM of MgCl2, 20 mM of CaC12, 0.008 unit of cyclic-AMP phosphodiesterase, 1.0 unit of calmodulin, 0.2 unit of 5'-nucleotidase and 1.0 ml of 10 mM-tris(hydroxymethyl)aminomethane/HCl buffer solution (pH 7.0) containing 0.5 mM of cyclic-AMP were mixed together, and reacted at 30° C. for 30 minutes. Each of the test compounds was dissolved in methanol or N,N-dimethylformamide as the solvent, provided that the quantity of the solvent was not exceed 2% of the total amount of the mixture. After the reaction was completed, the reaction mixture was ice-cooled, and 0.5 ml each of aqueous solutions of 16.5%-trichloroacetic acid, 1%-thiourea, 3%-ammonium ferrous sulfate were respectively added to the reaction mixture. Further, 0.15 ml of 4.4%-ammonium molibdate solution was added to the mixture and the whole of the mixture was stirred, and was centrifuged at 3,000 r.p.m. for 10 minutes. Then, the centrifuged mixture was allowed to stand at a room temperature for 20 minutes. The OD660 nm (optical density at 660 nm) was measured.

T1 sequence (P14100 1-514 isoform P14100-2): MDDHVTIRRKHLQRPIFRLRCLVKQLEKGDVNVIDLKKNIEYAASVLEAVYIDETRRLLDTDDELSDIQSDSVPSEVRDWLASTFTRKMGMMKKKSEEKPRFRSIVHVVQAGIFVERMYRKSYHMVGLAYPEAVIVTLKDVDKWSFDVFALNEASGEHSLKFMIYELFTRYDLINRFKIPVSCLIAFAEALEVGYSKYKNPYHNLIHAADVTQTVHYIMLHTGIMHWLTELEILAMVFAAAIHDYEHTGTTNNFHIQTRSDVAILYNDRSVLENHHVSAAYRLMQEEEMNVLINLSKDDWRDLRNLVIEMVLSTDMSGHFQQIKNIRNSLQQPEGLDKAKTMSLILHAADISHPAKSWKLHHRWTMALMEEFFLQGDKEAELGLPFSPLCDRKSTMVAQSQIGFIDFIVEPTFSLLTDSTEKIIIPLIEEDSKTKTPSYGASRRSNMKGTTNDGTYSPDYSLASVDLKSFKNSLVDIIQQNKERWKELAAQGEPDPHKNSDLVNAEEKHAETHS

| Molecule | Cyclic-AMP phosphodiesterase IC50 [1] [µg/mL] | Blood pressure after the administration, 24 hours (difference from the absolute value before administration) [2] [mm-Hg] | Blood pressure after the administration, 30 hours (difference from the absolute value before administration) [2] [mm-Hg] | Blood pressure after the administration, 48 hours (difference from the absolute value before administration) [2] [mm-Hg] | Blood pressure after the administration, 54 hours (difference from the absolute value before administration) [2] [mm-Hg] | Calmodulin-cyclic-AMP phosphodiesterase IC50 [3] [µg/mL] | Blood pressure after the administration, 72 hours (difference from the absolute value before administration) ([2]; 72 hours) [mm-Hg] | pIC50 [1] | IC50 [3] [µM] |
| --- | --- | --- | --- | --- | --- | --- | --- | --- | --- |
| Methyl 3-(4-hydroxyphenyl)-2-propynyl 1,4-dihydro-2,6-dimethyl-4-(3-nitrophenyl)-pyridine-3,5-dicarboxylate [Test Compound 12] | 13 | -18.0 | -25.8 | -19.8 | -14.6 | 0.78 |  |  |  |
| Methyl 3-(4-hydroxyphenyl)-2(E)-propenyl 1,4-dihydro-2,6-dimethyl-4-(3-nitrophenyl)pyridine-3,5-dicarboxylate [Test Compound 1] | 60 | -38.6 | -21.2 | -21.0 | -19.2 | 4.1 |  |  |  |
| Methyl 4-(4-methylthiophenyl)-3(E)-butenyl 1,4-dihydro-2,6-dimethyl-4-(3-nitrophenyl)-pyridine-3,5-dicarboxylate [Test Compound 15] | 0.23 | -75.4 | -66.8 | -20.8 | -10.6 | 0.062 | -9.6 |  |  |
| COC(=O)C1=C(C)NC(C)=C(C(=O)OC/C=C/c2ccco2)C1c1cccc([N+](=O)[O-])c1 (centres unmarked) [Test Compound 10, Methyl 3-furyl-2(E)-propenyl 1,4-dihydro-2,6-dimethyl-4-(3-nitrophenyl)pyridine-3,5-dicarboxylate] |  |  |  |  |  |  |  | < 3.64 | 3.54 |
| COC(=O)C1=C(C)NC(C)=C(C(=O)OC/C=C/c2ccc(O)c(Cl)c2)C1c1cccc([N+](=O)[O-])c1 (centres unmarked) [Test Compound 11, Methyl 3-(3-chloro-4-hydroxyphenyl)-2(E)-propenyl 1,4-dihydro-2,6-dimethyl-4-(3-nitrophenyl)pyridine-3,5-dicarboxylate] |  |  |  |  |  |  |  | 3.70 | 10.6 |
